According to PMC11641365, “Evaluation of In Vitro Biological Activity of Flavanone/Chromanone Derivatives: Molecular Analysis of Anticancer Mechanisms in Colorectal Cancer” (International Journal of Molecular Sciences, 2024):

Legend:
LoVo = experiment: MTT cell viability assay; type: cell-based; conditions: Homo sapiens, 24 h incubation with compound, mean ± SD of three experiments, read-out: Cytotoxic effect, IC50
Protocol: (§1) The cytotoxic activity of the 3-benzylideneflavanones, 3-benzylidenechromanones derivatives (compounds 1, 2, 3, 4, 5) and 5′-(3-methoxyphenyl)-2-phenyl-4′,5′-dihydro-4H-spiro[chromano-3,3′-pirazol]-4-one (compound 3a) was evaluated using the MTT assay (4,5-dimethylthiazol-2-yl)-2,5-diphenyltetrazoliumbromide), a colorimetric method that quantifies cell viability.
(§2) Cell viability was determined using the metabolic microplate spectrophotometric assay with Methylthiazolyl diphenyltetrazolium bromide (MTT) (Sigma-Aldrich; St. Louis, MO, USA). The MTT method belongs to metabolic tests for determining cell viability and consists of measuring the absorbance of a violet solution of formazan, a product of the reduction of a water-soluble yellow MTT by oxidoreductive enzymes (mainly mitochondrial succinate dehydrogenase) of living cells. The amount of the reaction product (water-insoluble formazan crystals) is proportional to the number of living and metabolically active cells in the sample. In the case of damaged or dead cells, formazan is formed in smaller amounts, or it is not formed.
(§3) The appropriate number of cells for a given cell line (6–8 × 10^3 cells/mL) were seeded onto colorless, sterile 96-well microplates (Nunc, Roskilde, Denmark) in the number appropriate for a given cell line. After 24 h of culture, various concentrations of the studied compounds (10^−7–10^−5 M) freshly prepared in DMSO (final concentration DMS < 0.1%) and diluted with complete culture medium were added and incubated in a CO2 incubator for 24 h. After this time, the medium was removed; the cell monolayer was washed twice with sterile PBS solution; and fresh culture medium was added to the microplate wells. After 48 h of cell culture, the MTT test was performed. A volume of 50 μL of tetrazolium salt solution (final concentration 0.05 mg/mL) was added to each microplate well. The microplate was placed for 3–4 h (depending on the cell line) in a CO2 incubator. After incubation, 100 μL of DMSO was added to the wells of the microplate to dissolve the purple formazan crystals formed in the living cell environment. The absorbance of the formazan solution, after gentle mixing, was read at a wavelength of λ = 580 nm and a reference wavelength of λ = 720 nm (Biotek Power Wave HT, Biotek Instruments, Winooski, VT, USA). The percentage of living cells was calculated by comparing the absorbance value of the tested samples with the absorbance value of the control (cells not treated with compounds). The absorbance of the control was taken as 100%.

SW620 = experiment: MTT cell viability assay; type: cell-based; conditions: Homo sapiens, SW-620, 24 h incubation with compound, mean ± SD of three experiments, read-out: Cytotoxic effect, IC50
Protocol: as §1, §2, §3

[1] = system: HCT 116, SW620, LoVo, Caco-2, and HT-29 cancer cell lines; experiment: Alkaline comet assay (DNA damage), all cell lines; type: cell-based, human; conditions: compound at IC50, 12 h; all five cell lines
Text: Single-cell gel electrophoresis, also known as the comet assay, is a rapid and sensitive method for assessing DNA damage at the single-cell level. Cells are lysed and electrophoresed. Both single-strand and double-strand breaks are detected under alkaline conditions. The released DNA is denatured and moves in the agarose gel toward the anode during electrophoresis. The image, obtained after staining with the fluorescent dye 4′,6-diamidino-2-phenylindole (DAPI), resembles a “comet” with a distinct “head” (intact DNA) and “tail” (damaged DNA fragments). The length of the tail depends on the number and size of the broken DNA strands.
Cells (1 × 10^3) were seeded in 35 mm dishes and cultured in the medium for 24 h to attain the logarithmic growth phase. […] Subsequently, cells were trypsinized and centrifuged for 10 min at 100× g at 4 °C. A small amount of PBS and a 0.5% solution of low-melting-point agarose (LMP agarose) were added to the obtained cell pellet and placed on a glass slide covered with two layers of normal-melting-point agarose (NMP agarose). The slides were incubated for 24 h in a lysis buffer (2.5 M NaCl, 100 mM, Na2EDTA, 10 mM, Tris, 1% Triton X-100) to release DNA. […] Quantitative analysis of the DNA comet image of preparations stained with DAPI solution (2 μg/L) was performed using a camera connected to a fluorescence microscope. The comet DNA analysis was performed under a Nikon Eclipse fluorescence microscope (Nikon, Tokyo, Japan) equipped with a 4910 COHU video camera (Cohu, Inc., San Diego, CA, USA) and a computer with Lucia-Comet v. […] Each time, from each preparation, 100 randomly selected comets were counted. The extent of DNA damage is quantified by measuring the length of the comet tail and the amount of DNA it contains. The Lucia Comet software calculated the percentage of DNA damage based on measurements of color intensity and comet tail length. The intensity of fluorescence was determined by the software, which calculated a series of parameters characterizing the extent of DNA damage for each cell. […]

## O=C1/C(=C/c2ccccc2)COc2ccccc21 [Compound 1]
LoVo
  IC50: 12.6 ± 1.5 µM
SW620
  IC50: 8.1 ± 1.7 µM
[1]
  Genotoxic properties (comet assay): potent genotoxic properties

## COc1cccc(/C=C2/C(=O)c3ccccc3OC2c2ccccc2)c1 (stereo not drawn) [Compound 3]
LoVo
  IC50: 23.2 ± 1.4 µM
SW620
  IC50: 12.4 ± 2.1 µM
[1]
  Genotoxic properties (comet assay): potent genotoxic properties

## O=C1/C(=C/c2ccccc2)C(c2ccccc2)Oc2ccccc21 (stereo not drawn) [Compound 5]
LoVo
  IC50: 19.4 ± 2.1 µM
SW620
  IC50: 16.7 ± 3.1 µM
[1]
  Genotoxic properties (comet assay): potent genotoxic properties
